# Experiments:
# [1] = Impression of sweetness of a sugar-reduced test solution (5% sucrose + compound against 6% sucrose); format: in vivo
# Text: In order to quantify the retention of an impression of sweetness when replacing a proportion of sucrose with a small amount of 4-hydroxydihydrochalcones of the formula (I) being used in accordance with the invention, the sweetness (a) of a solution containing 6 wt. % of sucrose as compared with a solution containing 5 wt. % of sucrose and (b) or (c) of a solution containing 6 wt. % of sucrose as compared with a solution containing 5% of sucrose and a certain concentration of a 4-hydroxydihydrochalcone being used according to the invention was determined by a group of experts (classification 0 [not sweet] to 10 [extremely sweet]). Evaluation was performed by calculating the enhancement (in %) of the impression of sweetness from the average values of the estimates for the solutions of 6% sucrose (second column) and for the solutions containing 5% sucrose and optionally the 4-hydroxydihydrochalcone of the formula (I) being used according to the invention (third column).
# [2] = Enhancing the impression of sweetness of a solution containing a sweet-tasting substance (expert panel rating), glycerine; format: in vivo; conditions: 30 ppm substance, 5%
# Experimental: (§1) In order to quantify the enhancement of an impression of sweetness by adding 4-hydroxydihydrochalcones to be used according to the invention, the sweetness of a solution containing a sweet-tasting substance and of samples containing the same amount of sweet-tasting substance and in addition a certain concentration of the 4-hydroxydihydrochalcones of the formula (I) to be used according to the invention was determined by a group of experts (classification 0 [extremely weaklysweet] to 10 [extremely sweet]). Evaluation was performed by calculating the enhancement (in %) of the impression of sweetness from the average values of the ratings for the solution containing the sweet-tasting substance (a) and for the solution containing the sweet-tasting substance and 4-dydroxydihydrochalcones (b).
# [3] = Enhancing the impression of sweetness of a solution containing a sweet-tasting substance (expert panel rating), sucrose; format: in vivo; conditions: 30 ppm substance, 5%
# Experimental: as §1
# [4] = in particular in clear aqueous applications; cited from earlier work
SMILES,total number of tasters / number of tasters who felt the 5 wt. % sucrose test solution with substance sweeter than 6 wt. % sucrose ([1]; 5% sucrose + 30 ppm substance),% enhancement of the impression of sweetness ([1]; 5% sucrose + 30 ppm substance against 6% sucrose) [%],"Impression of sweetness (1-10) ([1]; 5% sucrose + 30 ppm substance, mean ± standard deviation)",total number of tasters / number of tasters who felt that test solution (b) was sweeter than test solution (a) [2],% enhancement of the impression of sweetness ([2]; (b) with against (a) without),Impression of sweetness (1-10) b) with ([2]; mean ± standard deviation),total number of tasters / number of tasters who felt that test solution (b) was sweeter than test solution (a) [3],% enhancement of the impression of sweetness ([3]; (b) with against (a) without),Impression of sweetness (1-10) b) with ([3]; mean ± standard deviation),solubility [4]
"O=C(CCc1ccc(O)cc1)c1c(O)cc(O)cc1O [compound 4, 3-(4-hydroxyphenyl)-1-(2,4,6-trihydroxyphenyl)propan-1-one]",16/7,−4.9,6.1 ± 1.4,16/11,+45%,4.4 ± 2.1,16/14,+31%,7.4 ± 1.4,
COc1ccc(C2CC(=O)c3c(O)cc(O)cc3O2)cc1O (stereo not shown) [hesperetin],,,,,,,,,,low solubility
